From patent US20080214646A1 (priority 2005, published 2008)
Values joined by “and” are separate entries in the source; they are usually repeats but may differ in a detail not shown here. Equal entries are not always repeated. Marks after values point to notes of the source that are not given here.

Assays:
[1] = test system: carrageenan-induced rat paw edema; assay: Carrageenan-induced rat paw edema anti-inflammatory assay; format: in vivo; conditions: for ED50: 3 h after oral administration, rat, read-out: AI activity ID50
ovine COX-2 = target: T1, ovine COX-2 (Ovis aries, UniProt P79208); assay: In vitro ovine COX-2 enzyme inhibition (EIA kit); format: biochemical; conditions: for IC50: ovine COX-2, mean of two determinations
T1 construct: purchased Cayman Chemical 560101
T1 sequence (P79208 17-603): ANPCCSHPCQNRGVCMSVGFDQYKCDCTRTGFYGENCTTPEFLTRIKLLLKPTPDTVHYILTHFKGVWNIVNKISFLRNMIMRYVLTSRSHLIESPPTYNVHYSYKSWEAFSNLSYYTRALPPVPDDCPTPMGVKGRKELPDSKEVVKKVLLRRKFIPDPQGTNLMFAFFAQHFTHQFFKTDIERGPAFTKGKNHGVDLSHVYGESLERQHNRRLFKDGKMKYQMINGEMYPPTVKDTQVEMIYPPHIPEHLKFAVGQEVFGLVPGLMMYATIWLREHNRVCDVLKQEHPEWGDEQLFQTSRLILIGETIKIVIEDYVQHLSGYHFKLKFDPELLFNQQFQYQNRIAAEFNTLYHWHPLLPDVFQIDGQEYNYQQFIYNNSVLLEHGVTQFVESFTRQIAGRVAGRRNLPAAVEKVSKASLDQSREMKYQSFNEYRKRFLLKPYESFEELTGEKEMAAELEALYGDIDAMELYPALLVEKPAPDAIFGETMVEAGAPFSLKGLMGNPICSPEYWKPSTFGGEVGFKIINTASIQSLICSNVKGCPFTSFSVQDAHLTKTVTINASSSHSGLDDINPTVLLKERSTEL

[2] = Nitric oxide release in phosphate buffer (Griess reaction); format: physicochemical; conditions: PBS pH 7.4, 37° C., 1.5 h; relative to theoretical maximum 2 mol NO/mol
Protocol: (§1) Nitric Oxide Release Assay: In vitro nitric oxide release, upon incubation with phosphate buffer, pig liver esterase, or guinea pig serum, was determined by quantification of nitrite produced by the reaction of nitric oxide with oxygen and water using the Griess reaction.

ovine COX-1 = target: T2, ovine COX-1 (Ovis aries, UniProt P05979); assay: In vitro ovine COX-1 enzyme inhibition (EIA kit); format: biochemical; conditions: mean of two determinations
T2 construct: purchased Cayman Chemical 560101
T2 sequence (P05979 25-600): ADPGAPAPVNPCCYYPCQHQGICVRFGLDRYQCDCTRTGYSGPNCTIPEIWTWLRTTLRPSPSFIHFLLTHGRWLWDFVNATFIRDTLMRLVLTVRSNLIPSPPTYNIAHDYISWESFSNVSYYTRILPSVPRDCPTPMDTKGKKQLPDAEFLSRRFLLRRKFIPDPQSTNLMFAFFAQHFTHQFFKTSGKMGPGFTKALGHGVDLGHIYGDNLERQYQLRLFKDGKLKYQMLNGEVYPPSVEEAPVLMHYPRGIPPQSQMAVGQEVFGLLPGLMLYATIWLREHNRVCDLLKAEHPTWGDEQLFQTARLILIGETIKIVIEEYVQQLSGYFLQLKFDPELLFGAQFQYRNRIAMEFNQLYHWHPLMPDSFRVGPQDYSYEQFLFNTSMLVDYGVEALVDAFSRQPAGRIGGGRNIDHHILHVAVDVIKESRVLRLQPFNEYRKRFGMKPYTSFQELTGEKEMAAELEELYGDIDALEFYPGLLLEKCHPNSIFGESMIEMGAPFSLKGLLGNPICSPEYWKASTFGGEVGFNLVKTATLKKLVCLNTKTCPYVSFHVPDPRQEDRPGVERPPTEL

gastric ulcers = assay: Acute ulcerogenesis assay (gastric ulcer index); format: in vivo, rats; conditions: oral, 6 h, rat
Protocol: All drugs were suspended and administered in 1.7 mL of a 1% methylcellulose solution. Control rats received oral administration of vehicle (1.7 mL of 1.0% methylcellulose solution). Food, but not water, was removed 24 h before administration of test compounds. Six hours after oral administration of the drug, rats were euthanized in a CO2 chamber and their stomachs were removed, cut out along the greater curvature of the stomach, gently rinsed with water and placed on ice. The number and the length of ulcers were determined using a magnifier lens. […] The average overall length (in mm) of individual ulcers in each tissue was designated as the “ulcer index”. Each experimental group consisted of four rats.

pig liver esterase = conditions: 1.5 h, pH 7.4
Protocol: as §1

[3] = equivalent amount to 250 mg of aspirin/kg
[4] = equivalent amount to 250 mg of ibuprofen/kg

COX-2 S.I. (COX-1 IC50/COX-2 IC50) (ovine COX-2; selectivity index)	% of Nitric oxide released, PBS (pH 7.4) [2] [%]	IC50 (ovine COX-1) [µM]	IC50 (ovine COX-2) [µM]	% of Nitric oxide released, PLE (pig liver esterase) [%]	Compound	ED50 [1] [mg/kg]	Ulcer index (gastric ulcers; [3])	Ulcer index (gastric ulcers; [4])	fold less potent relative to the parent drug (ID50) ([1]; carrageenan-induced rat paw edema, oral)	Ulcer index (gastric ulcers; equivalent amount to 30 mg of indomethacin/kg)
					CC(C)Cc1ccc(C(C)C(=O)O)cc1 (racemic) [Ibuprofen, ibuprofen, reference compound]	67.4				
0.14					CC(=O)Oc1ccccc1C(=O)O [Aspirin, Acetyl salicylic acid, reference compound]	129				
	95.2 ± 0.1				CN(C)[N+]([O-])=N[O-].[Na+] [Compound 7, O^2-Sodium 1-(N,N-dimethylamino)diazen-1-ium-1,2-diolate, reference compound]					
	14.8 ± 0.1	> 100	> 100	18.5 ± 0.1	CC(=O)Oc1ccccc1C(=O)OCON=[N+]([O-])N1CCCC1 [Compound 11, O^2(Acetylsalicyloyloxymethyl)-1-(pyrrolidin-1-yl)diazen-1-ium-1,2-diolate]	182	0 mm and 0^d mm			
	15.4 ± 0.1	> 100	> 100	19.1 ± 0.1	CC(=O)Oc1ccccc1C(=O)OCON=[N+]([O-])N(C)C [Compound 12, O^2(Acetylsalicyloyloxymethyl)-1-(N,N-dimethylamino)diazen-1-ium-1,2-diolate]	151	0 mm and 0^d mm			
	14.9 ± 0.1	> 100	> 100	16.3 ± 0.1	CC(C)Cc1ccc(C(C)C(=O)OCON=[N+]([O-])N2CCCC2)cc1 (stereo not drawn) [Compound 13, O^2-[2-(4-(Isobutyl)phenyl)propanoyloxymethyl]-1-(pyrrolidin-1-yl)diazen-1-ium-1,2-diolate]	66.8		0 mm and 0^e mm		
	16.1 ± 0.1	> 100	> 100	17.3 ± 0.1	CC(C)Cc1ccc(C(C)C(=O)OCON=[N+]([O-])N(C)C)cc1 (stereo not drawn) [Compound 14, O^2-[2-(4-(Isobutyl)phenyl)propanoyloxymethyl]-1-(N,N-dimethylamino)diazen-1-ium-1,2-diolate]	62.3		0 mm and 0^e mm		
					COc1ccc2c(c1)c(CC(=O)O)c(C)n2C(=O)c1ccc(Cl)cc1 [Indomethacin, indomethacin, reference compound]	4.2				
	94.0 ± 0.1				[Na+].[O-]N=[N+]([O-])N1CCCC1 [O^2-sodium 1-(pyrrolidin-1-yl)diazen-1-ium-1,2-diolate, reference compound]					

Compound	COX-2 S.I. (COX-1 IC50/COX-2 IC50) (ovine COX-2; selectivity index)	% of Nitric oxide released, PBS (pH 7.4) [2] [%]	IC50 (ovine COX-1) [µM]	IC50 (ovine COX-2) [µM]	% of Nitric oxide released, PLE (pig liver esterase) [%]	ED50 [1] [mg/kg]	Ulcer index (gastric ulcers; [3])	Ulcer index (gastric ulcers; [4])	fold less potent relative to the parent drug (ID50) ([1]; carrageenan-induced rat paw edema, oral)	Ulcer index (gastric ulcers; equivalent amount to 30 mg of indomethacin/kg)
COc1ccc2c(c1)c(CC(=O)OCON=[N+]([O-])N1CCCC1)c(C)n2C(=O)c1ccc(Cl)cc1 [Compound 15, O^2-[2-(1-(4-Chlorobenzoyl)-5-methoxy-2-methyl-1H-indol-3-yl)acetoxymethyl]-1-(pyrrolidin-1-yl)diazen-1-ium-1,2-diolate]		15.1 ± 0.1	> 100	> 100	16.3 ± 0.1	10.7			about 2.5 fold	0.7 ± 0.11^f mm
COc1ccc2c(c1)c(CC(=O)OCON=[N+]([O-])N(C)C)c(C)n2C(=O)c1ccc(Cl)cc1 [Compound 16, O^2-[2-(1-(4-Chlorobenzoyl)-5-methoxy-2-methyl-1H-indol-3-yl)acetoxymethyl]-1-(dimethylamino)diazen-1-ium-1,2-diolate]		14.3 ± 0.1	> 100	> 100	16.9 ± 0.1	5.9				
